Experimental data from the supplement of paper PMC12137928.
Where a name gives a salt, the structure may show the parent alone.

Experiments:
[1] = tested on: HCT116; conditions: 72 h
Method in brief: (§1)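 Each well of the 1536-well plates received 250 HCT116 cells, which attached over 5 h. Luminescence was measured with CellTiter-Glo, scaled with vehicle as 0% and positive control as -100%, and pattern-corrected. A four-parameter Hill fit yielded IC50 and maximal efficacy.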

[2] = tested on: HCT116; test: efficacy (maximum % inhibition of viability vs DMSO); higher = more cytotoxic; conditions: 72 h
Method in brief: as §1

| Structure (SMILES) | IC50 cell viability ([1]; ICRF193 0 nM) [µM] | IC50 cell viability ([1]; ICRF193 200 nM) [µM] | efficacy ([2]; ICRF193 0 nM) [%] | efficacy ([2]; ICRF193 200 nM) [%] |
| --- | --- | --- | --- | --- |
| C=CC(=O)N1CCC[C@@H](n2nc(-c3ccc(Oc4ccccc4)cc3)c3c(N)ncnc32)C1 | 23.1 | 29.1 | 47.6 | 72.8 |
| C=C[C@@H]1C[C@]1(NC(=O)[C@@H]1C[C@@H](Oc2ncc(OC)c3ccc(Cl)cc23)CN1C(=O)[C@@H](NC(=O)OC(C)(C)C)C(C)(C)C)C(=O)NS(=O)(=O)C1CC1 | 20.6 | 20.6 | 92.8 | 92.4 |
| CCCCC[C@H](O)C=C[C@H]1[C@@H](O)CC(=O)[C@@H]1CCCCCCC(=O)O | 20.6 | 23.1 | 73.2 | 73.8 |
| C[C@@H]1CCO[C@H]2Cn3cc(C(=O)NCc4ccc(F)cc4F)c(=O)c(O)c3C(=O)N12 | 25.9 | 20.6 | 82.5 | 106 |
| C#C[C@]1(OC(C)=O)CC[C@H]2[C@@H]3CCC4=CC(=NO)CC[C@@H]4[C@H]3CC[C@@]21CC (mixture of isomers) [Norgestimate] | 18.3 | 29.1 | 84 | 102 |
| CNCCC(Oc1ccc(C(F)(F)F)cc1)c1ccccc1 (racemic) [(+/-) -Fluoxetine] | 29.1 | 18.3 | 106 | 102 |
| CCCC1CCCCN1 (racemic) [dl-Coniine] | > 45.8 | 4.11 | – | 66.1 |
| O[C@@H](CNC[C@H](O)[C@H]1CCc2cc(F)ccc2O1)[C@@H]1CCc2cc(F)ccc2O1 (racemic) [rac Nebivolol hydrochloride] | 29.1 | 20.6 | 121 | 98.2 |
| CCCCCCCCCCCC[n+]1ccc2ccccc2c1 [2-Dodecylisoquinolinium tosylate] | 7.3 | 4.61 | 101 | 103 |
| O=C(Nc1ccc([N+](=O)[O-])cc1)Nc1ccc([N+](=O)[O-])cc1 [4,4'-Dinitrodiphenylurea] | > 45.8 | 29.1 | – | 55.9 |
| Nc1ncn([C@@H]2O[C@H](CO)[C@@H](O)[C@H]2O)c(=O)n1 [5-Azacitidine] | 8.2 | 8.2 | 121 | 98.6 |
| Nc1nc(=S)c2[nH]cnc2[nH]1 [6-Thioguanine] | 3.66 | 2.06 | 97.5 | 91.8 |
| S=c1nc[nH]c2nc[nH]c12 [6-mercaptopurine] | 2.59 | 3.26 | 91.6 | 83.2 |
| Nc1c2ccccc2nc2ccccc12 [9-Aminoacridine, monohydrochloride, monohydrate] | 23.1 | 9.2 | 103 | 90.6 |
| C[C@H](Oc1cc(-c2cnn(C3CCNCC3)c2)cnc1N)c1c(Cl)ccc(F)c1Cl [(S)-Crizotinib] | 20.6 | 18.3 | 89.7 | 91.2 |
| COc1c(-c2ccc3cc(NS(C)(=O)=O)ccc3c2)cc(-n2ccc(=O)[nH]c2=O)cc1C(C)(C)C [ABT-333] | 20.6 | 25.9 | 94.6 | 102 |
| Cc1cnc(C(=O)N[C@H]2CCCCC/C=C\[C@@H]3C[C@@]3(C(=O)NS(=O)(=O)C3CC3)NC(=O)[C@@H]3C[C@@H](Oc4nc5ccccc5c5ccccc45)CN3C2=O)cn1 [ABT-450] | 29.1 | 18.3 | 110 | 100 |
| N=c1ccn2c(n1)O[C@H]1[C@H](O)[C@@H](CO)O[C@H]12 [ANCITABINE HYDROCHLORIDE] | 0.206 | 0.146 | 58.5 | 56.7 |
| C[C@H]1[C@H](OC(=O)CCC(=O)O)O[C@@H]2O[C@@]3(C)CC[C@H]4[C@H](C)CC[C@@H]1[C@@]24OO3 [ARTESUNATE] | 1.64 | 0.73 | 93.1 | 86.8 |

| Structure (SMILES) | IC50 cell viability ([1]; ICRF193 0 nM) [µM] | IC50 cell viability ([1]; ICRF193 200 nM) [µM] | efficacy ([2]; ICRF193 0 nM) [%] | efficacy ([2]; ICRF193 200 nM) [%] |
| --- | --- | --- | --- | --- |
| CCN1CCN(Cc2ccc(Nc3ncc(F)c(-c4cc(F)c5nc(C)n(C(C)C)c5c4)n3)nc2)CC1 [Abemaciclib] | 16.4 | 18.3 | 116 | 112 |
| CC(=O)Oc1cc(C)c(OC(C)=O)c2ccccc12 [Acetomenaphthone] | 44.7 | 50.1 | 107 | 108 |
| CC[C@@]1(O)C[C@H](O[C@H]2C[C@H](N(C)C)[C@H](O[C@H]3C[C@H](O)[C@H](O[C@H]4CCC(=O)[C@H](C)O4)[C@H](C)O3)[C@H](C)O2)c2c(cc3c(c2O)C(=O)c2c(O)cccc2C3=O)[C@H]1C(=O)OC [Aclarubicin] | 23.1 | 9.2 | 122 | 112 |
| C[n+]1c2cc(N)ccc2cc2ccc(N)cc21.Nc1ccc2cc3ccc(N)cc3nc2c1 [Acriflavine hydrochloride] | 16.4 | 23.1 | 50.4 | 56.5 |
| Cc1c2oc3c(C)ccc(C(=O)N[C@@H]4C(=O)N[C@H](C(C)C)C(=O)N5CCC[C@H]5C(=O)N(C)CC(=O)N(C)[C@@H](C(C)C)C(=O)O[C@@H]4C)c3nc-2c(C(=O)N[C@@H]2C(=O)N[C@H](C(C)C)C(=O)N3CCC[C@H]3C(=O)N(C)CC(=O)N(C)[C@@H](C(C)C)C(=O)O[C@@H]2C)c(N)c1=O [Actinomycin D] | 0.0164 | 0.0206 | 48.1 | 79.3 |
| CC(C)(C)C(=O)OCOP(=O)(COCCn1cnc2c(N)ncnc21)OCOC(=O)C(C)(C)C [Adefovir dipivoxil] | 14.6 | 13 | 63.1 | 79.3 |
| CN(C)C/C=C/C(=O)Nc1cc2c(Nc3ccc(F)c(Cl)c3)ncnc2cc1O[C@H]1CCOC1 [Afatinib (BIBW2992)] | 29.1 | 18.3 | 110 | 130 |
| CCCSc1ccc2[nH]c(NC(=O)OC)nc2c1 [Albendazole] | 10.3 | > 45.8 | 53 | – |
| O=C1c2ccccc2C(=O)c2c1ccc(O)c2O [Alizarin] | > 45.8 | 29.1 | – | 47.6 |
| O=S(=O)(O)c1ccc2c(/N=N/c3ccc(S(=O)(=O)O)c4ccccc34)c(O)c(S(=O)(=O)O)cc2c1 [Amaranth] | 16.4 | 13 | 49 | 47.6 |
| CCCCc1oc2ccccc2c1C(=O)c1cc(I)c(OCCN(CC)CC)c(I)c1 [Amiodarone hydrochloride] | 20.6 | 16.4 | 92.6 | 93 |
| CN(C)CCC=C1c2ccccc2CCc2ccccc21 [Amitriptyline hydrochloride] | > 45.8 | 18.3 | – | 51.6 |
| CCOC(=O)C1=C(COCCN)NC(C)=C(C(=O)OC)C1c1ccccc1Cl (configuration not stated) [Amlodipine] | > 45.8 | 16.4 | – | 88.3 |
| CCN(CC)Cc1cc(Nc2ccnc3cc(Cl)ccc23)ccc1O [Amodiaquin dihydrochloride dihydrate] | 18.3 | 18.3 | 85.2 | 101 |
| COc1cc(NS(C)(=O)=O)ccc1Nc1c2ccccc2nc2ccccc12 [Amsacrine] | 20.6 | 20.6 | 141 | 128 |
| CN1CCc2cccc3c2[C@H]1Cc1ccc(O)c(O)c1-3 [Apomorphine] | 20.6 | 29.1 | 116 | 107 |
| C[C@@H](O[C@H]1OCCN(Cc2n[nH]c(=O)[nH]2)[C@H]1c1ccc(F)cc1)c1cc(C(F)(F)F)cc(C(F)(F)F)c1 [Aprepitant] | 23.1 | 18.3 | 113 | 102 |
| COC(=O)C1=C(C)NC(C)=C(C(=O)OCC(C)=O)C1c1ccccc1[N+](=O)[O-] (configuration not stated) [Aranidipine] | 29.1 | 16.4 | 83.8 | 88.9 |
| [O-][n+]1cccc(/C(Cl)=N/OC[C@H](O)CN2CCCCC2)c1 [Arimoclomol] | > 45.8 | 0.651 | – | 65.4 |

| Structure (SMILES) | IC50 cell viability ([1]; ICRF193 0 nM) [µM] | IC50 cell viability ([1]; ICRF193 200 nM) [µM] | efficacy ([2]; ICRF193 0 nM) [%] | efficacy ([2]; ICRF193 200 nM) [%] |
| --- | --- | --- | --- | --- |
| O=C1CCc2ccc(OCCCCN3CCN(c4cccc(Cl)c4Cl)CC3)cc2N1 [Aripiprazole] | 11.6 | 9.2 | 52.1 | 59.1 |
| COc1ccc(CCN2CCC(Nc3nc4ccccc4n3Cc3ccc(F)cc3)CC2)cc1 [Astemizole] | 20.6 | 16.4 | 108 | 102 |
| CNCC[C@@H](Oc1ccccc1C)c1ccccc1 [Atomoxetine hydrochloride] | > 45.8 | 29.1 | – | 81.3 |
| CC(C)c1c(C(=O)Nc2ccccc2)c(-c2ccccc2)c(-c2ccc(F)cc2)n1CC[C@@H](O)C[C@@H](O)CC(=O)O [Atorvastatin calcium] | 18.3 | 18.3 | 60.2 | 70.6 |
| O=C1C(O)=C([C@H]2CC[C@H](c3ccc(Cl)cc3)CC2)C(=O)c2ccccc21 [Atovaquone] | > 45.8 | 18.3 | – | 54.1 |
| CC(=O)OC[C@H]1O[C@@H]([S-])[C@H](OC(C)=O)[C@@H](OC(C)=O)[C@@H]1OC(C)=O.CCP(CC)CC.[Au+] [Auranofin] | 2.59 | 2.59 | 102 | 96.8 |
| CC[C@H](C)[C@@H]([C@@H](CC(=O)N1CCC[C@H]1[C@H](OC)[C@@H](C)C(=O)NCCc1ccccc1)OC)N(C)C(=O)[C@@H](NC(=O)[C@H](C(C)C)N(C)C)C(C)C [Auristatin PE] | > 45.8 | 0.00461 | – | 42.4 |
| CCC(C)C1O[C@]2(C=C[C@@H]1C)C[C@@H]1CC(C/C=C(\C)[C@@H](OC3C[C@H](OC)[C@@H](OC4C[C@H](OC)[C@@H](O)[C@H](C)O4)[C@H](C)O3)[C@@H](C)/C=C/C=C3\COC4[C@H](O)C(C)=CC(C(=O)O1)[C@]34O)O2 (some centres not stated) [Avermectin B1a] | 8.2 | > 45.8 | 92.3 | – |
| CNC(=O)c1ccccc1Sc1ccc2c(/C=C/c3ccccn3)n[nH]c2c1 [Axitinib] | 23.1 | 20.6 | 57.5 | 62.1 |
| COc1cccc(C(=O)CCN[C@@H](C)[C@H](O)c2ccccc2)c1 [l-Oxyfedrine hydrochloride] | > 45.8 | > 45.8 | – | – |
| Cc1cccc(O)c1 [m-Cresol] | > 45.8 | > 45.8 | – | – |
| CC(=O)Oc1cccc(C)c1 [m-Cresyl acetate] | > 45.8 | > 45.8 | – | – |
| O[C@H]1[C@H](O)[C@@H](O)[C@H](O)[C@@H](O)[C@H]1O [myo-Inositol] | > 45.8 | > 45.8 | – | – |
| Cc1ccccc1O [o-Cresol] | > 45.8 | > 45.8 | – | – |
| Clc1ccc(C(c2ccc(Cl)cc2)C(Cl)(Cl)Cl)cc1 [p,p'-DDT] | > 45.8 | > 45.8 | – | – |
| Nc1cc(Cl)c(NC2=NCCN2)c(Cl)c1 [p-Aminoclonidine hydrochloride] | > 45.8 | > 45.8 | – | – |
| Cc1ccc(O)cc1 [p-Cresol] | > 45.8 | > 45.8 | – | – |
| CC1(O)CCC(C(C)(C)O)CC1 (configuration not stated) [p-Menthane-1,8-diol monohydrate] | > 45.8 | > 45.8 | – | – |
| O=C(O)/C=C(\CC(=O)O)C(=O)O [trans-Aconitic acid] | > 45.8 | > 45.8 | – | – |
